Reference: patent publication EP0104826A2, “Immunomodulator and method of use for immunomodulation” (FUJISAWA PHARMACEUTICAL CO., LTD., priority 1982, dated 1984)

Columns and labels:
[1] = system: mixed lymphocyte culture (MLC)-stimulated spleen cells; experiment: Mixed lymphocyte culture (MLC), 3H-thymidine uptake; format: cell-based, mice
Protocol: Female C57BL/6 mice, 8 weeks in age, and female BALB/c mice, 8 weeks in age were sacrificed, spleens were aseptically removed and single cell suspensions were prepared as sources of stimulating and responding cells, respectively. Prior to culture, the stimulator cells were treated with 200 µg/ml of mitomycin C for 45 minutes at 37°C, followed by three washes with PBS.
They were established at a final concentration of 0.2 x 10^6 cells/0.2 ml of reaction mixture and cultured in microtiteration plate (Falcon, No.3040) using RPMI medium supplemented with 10% fetal bovine serum and 5 x 10^-5M 2- mercaptoethanol. The culture was continued for 120 hours and pulse-labeled with ^3H-thymidine for 24 hours before the termination of incubation. The cells were collected and radioactivity was counted.

[2] = system: antibody forming capacities against SRBC; experiment: Antibody forming capacity (direct plaque-forming cells against SRBC) in mice injected with immunosuppressive factor; format: in vivo
Protocol: Splenic lymphocytes producing antibody against sheep blood red cells (SRBC) were quantitated using Cunningham modification (Cunningham, A.J., Nature, 207, 1106-1107, 1965) of the Jerne plaque assay.
[…] Samples were administered to mice intraperitoneally four times before immunization. Mice were sacrificed 4 days after the injection of SRBC, and the number of direct plaque-forming cells per spleen was determined.

[3] = system: antibody forming capacities; experiment: Antibody forming capacity (PFC-SRBC) in Sarcoma 180 tumor bearing mice; format: in vivo
Protocol: Female ICR(8 weeks in age) mice were intraperitoneally inoculated with 0.2 ml of Sarcoma 180 suspension (5 x 10^6 cells/ml)at day 0. Samples were administered to mice intraperitoneally from 7 days before immunization with 5 x 10^8 SRBC, every day for five days.
The number of direct plaque forming cells per spleen was measured five days after immunization.

[4] = system: antibody forming capacities; experiment: Antibody forming capacity (PFC-SRBC) in mice immunosuppressed with mitomycin C; format: in vivo
Protocol: Female BDF1 (8 weeks in age) mice were injected intraperitoneally with mitomycin C (1 mg/kg) from four days before immuization with 5 x 10^8 SRBC, every day for three days. Samples also were administered to mice intraperitoneally from four days before immunization, every day for five days.
At day 9, mice were sacrificed and the number of direct plaque forming cells per spleen was measured by using Cunningham modification method.

[5] = system: antibody forming capacities; experiment: Antibody forming capacity (PFC-SRBC) in mice immunosuppressed with cyclophosphamide; format: in vivo
Protocol: Female BDF1 (8 weeks in age) mice were injected intraperitoneally with cyclophosphamide (22.5 mg/kg) 4 days before immunization with 5 x 10^8 SRBC. Samples were administered to mice i.p. from four days before immunization, every day for five days.
Mouse splenic lymphocytes producing antibody against SRBC were quantitated by using Cunningham modification method described previously.

thymus = experiment: Dexamethasone-induced thymus atrophy in mice; format: in vivo; settings: for Thymus weight: Dexamethasone treatment Yes, n=5
Protocol: Five week-old ddY mice(male) were used. Samples were given subcutaneously twice per day from day 0 to day 2 of the experiment. Five hours after first medication on day 0, mice were supplied with drinking water containing 1 ug/ml of dexamethasone.
At day 2, the weight of thymus of the treated mice was compared with that of the nontreated controls.

[6] = system: Sarcoma-180 (S-180) cells; experiment: Murine transplantable tumor, total tumor cell packed volume in ascites; format: in vivo; settings: mice
Protocol: Sarcoma-180 (S-180) cells (1 x 10^6 cells) were inoculated to ICR (female, 8 weeks old) mice intraperitoneally and then after, swainsonine was administered intraperitoneally daily for 5 days. The total tumor cell packed volume in ascites was measured 15 days after tumor cell inoculation.

[7] = BDF1 mice, Swainsonine 100 mg/kg i.p. alone

Q: O[C@H]1[C@H]2[C@H](O)CCCN2C[C@H]1O [Swainsonine] was tested. Which “^3H-thymidine uptake (cpm)” value ([1]; MLC with immunosuppressive factor (3 µl) + swainsonine 0.00002 µg/well) did it give?
A: The value was 10,449 cpm.

Q: And the “^3H-thymidine uptake (cpm)” value ([1]; MLC with immunosuppressive factor (3 µl) + swainsonine 0.0002 µg/well)?
A: Its value is 13,015 cpm.

Q: And the “^3H-thymidine uptake (cpm)” value ([1]; MLC with immunosuppressive factor (3 µl) + swainsonine 0.002 µg/well)?
A: The value was 24,951 cpm.

Q: What about the “^3H-thymidine uptake (cpm)” value ([1]; MLC with immunosuppressive factor (3 µl) + swainsonine 0.02 µg/well) of the same compound?
A: Its value is 31,595 cpm.

Q: And the “^3H-thymidine uptake (cpm)” value ([1]; MLC with immunosuppressive factor (3 µl) + swainsonine 0.2 µg/well)?
A: Its value is 27,942 cpm.

Q: And the “^3H-thymidine uptake (cpm)” value ([1]; MLC with immunosuppressive factor (3 µl) + swainsonine 2 µg/well)?
A: The value was 23,928 cpm.

Q: And the “^3H-thymidine uptake (cpm)” value ([1]; MLC with immunosuppressive factor (5 µl) + swainsonine 0.00002 µg/well)?
A: Its value is 3,737 cpm.

Q: And the “^3H-thymidine uptake (cpm)” value ([1]; MLC with immunosuppressive factor (5 µl) + swainsonine 0.0002 µg/well)?
A: The value was 6,377 cpm.

Q: And the “^3H-thymidine uptake (cpm)” value ([1]; MLC with immunosuppressive factor (5 µl) + swainsonine 0.002 µg/well)?
A: The value was 10,918 cpm.

Q: And the “^3H-thymidine uptake (cpm)” value ([1]; MLC with immunosuppressive factor (5 µl) + swainsonine 0.02 µg/well)?
A: Its value is 7,679 cpm.

Q: And the “^3H-thymidine uptake (cpm)” value ([1]; MLC with immunosuppressive factor (5 µl) + swainsonine 0.2 µg/well)?
A: Its value is 7,928 cpm.

Q: What about the “^3H-thymidine uptake (cpm)” value ([1]; MLC with immunosuppressive factor (5 µl) + swainsonine 2 µg/well) of the same compound?
A: The value was 6,709 cpm.

Q: And the “^3H-thymidine uptake (cpm)” value ([1]; MLC with swainsonine 0.00002 µg/well, no immunosuppressive factor)?
A: Its value is 20,653 cpm.

Q: And the “^3H-thymidine uptake (cpm)” value ([1]; MLC with swainsonine 0.0002 µg/well, no immunosuppressive factor)?
A: The value was 21,823 cpm.

Q: What about the “^3H-thymidine uptake (cpm)” value ([1]; MLC with swainsonine 0.002 µg/well, no immunosuppressive factor) of the same compound?
A: Its value is 29,688 cpm.

Q: What about the “^3H-thymidine uptake (cpm)” value ([1]; MLC with swainsonine 0.02 µg/well, no immunosuppressive factor) of the same compound?
A: The value was 33,686 cpm.

Q: What about the “^3H-thymidine uptake (cpm)” value ([1]; MLC with swainsonine 0.2 µg/well, no immunosuppressive factor) of the same compound?
A: Its value is 38,077 cpm.

Q: And the “^3H-thymidine uptake (cpm)” value ([1]; MLC with swainsonine 2 µg/well, no immunosuppressive factor)?
A: The value was 33,104 cpm.

Q: And the “inhibitory activity of immunosuppressive factor in MLC” value ([1]; immunosuppressive factor incubated with swainsonine)?
A: Its value is “the inhibitory activity was removed”.

Q: And the “MLC-stimulated spleen cells ^3H-thymidine uptake” value ([1]; swainsonine added to MLC)?
A: Its value is “enhanced remarkably”.

Q: What about the “PFC-SRBC/spleen (average number of 5 mice/group)” value (shortened to “PFC-SRBC/spleen”) ([2]; BDF1 mice, Swainsonine 100 mg/kg/day intraperitoneally, alone (normal mice)) of the same compound?
A: Its value is 16.49 x 10^4 PFC-SRBC/spleen.

Q: What about the “PFC-SRBC/spleen” value ([2]; Immunosuppressive factor (0.3 ml/mouse/day) + Swainsonine 3.7 mg/kg i.p.) of the same compound?
A: The value was 20.77 x 10^4 PFC-SRBC/spleen.

Q: And the “PFC-SRBC/spleen” value ([2]; Immunosuppressive factor (0.3 ml/mouse/day) + Swainsonine 11 mg/kg i.p.)?
A: The value was 20.08 x 10^4 PFC-SRBC/spleen.

Q: What about the “PFC-SRBC/spleen” value ([2]; Immunosuppressive factor (0.3 ml/mouse/day) + Swainsonine 33 mg/kg i.p.) of the same compound?
A: Its value is 20.84 x 10^4 PFC-SRBC/spleen.

Q: What about the “PFC-SRBC/spleen” value ([2]; Immunosuppressive factor (0.3 ml/mouse/day) + Swainsonine 100 mg/kg i.p.) of the same compound?
A: The value was 17.39 x 10^4 PFC-SRBC/spleen.

Q: What about the “capacities to produce antibody against SRBC” value (“capacities to produce antibody” for short) ([2]; mice injected immunosuppressive factor, intraperitoneal administration) of the same compound?
A: Its value is “restored the capacities”.

Q: And the “capacities to produce antibody” value ([2]; normal mice)?
A: Its value is “did not enhance”.

Q: And the “PFC-SRBC/spleen” value ([3]; ICR mice without tumor, Swainsonine 100 mg/kg i.p.)?
A: The value was 118.7 x 10^4 PFC-SRBC/spleen.

Q: And the “PFC-SRBC/spleen” value ([3]; Tumor bearer (Sarcoma 180, ICR mice) + Swainsonine 100 mg/kg i.p., every day for five days)?
A: Its value is 126.7 x 10^4 PFC-SRBC/spleen.

Q: And the “PFC-SRBC/spleen” value ([3]; Tumor bearer + Swainsonine 3.7 mg/kg i.p.)?
A: The value was 61.6 x 10^4 PFC-SRBC/spleen.

Q: And the “PFC-SRBC/spleen” value ([3]; Tumor bearer + Swainsonine 11 mg/kg i.p.)?
A: The value was 71.6 x 10^4 PFC-SRBC/spleen.

Q: And the “PFC-SRBC/spleen” value ([3]; Tumor bearer + Swainsonine 33 mg/kg i.p.)?
A: Its value is 123.5 x 10^4 PFC-SRBC/spleen.

Q: And the “capacities to produce antibody” value ([3]; tumor bearing mice)?
A: Its value is “restored the capacities”.

Q: What about the “PFC-SRBC/spleen” value [4, 7] of the same compound?
A: Its value is 21.66 x 10^4 PFC-SRBC/spleen.

Q: What about the “PFC-SRBC/spleen” value ([4]; Mitomycin C (1.0 mg/kg) + Swainsonine 3.7 mg/kg i.p.) of the same compound?
A: Its value is 21.31 x 10^4 PFC-SRBC/spleen.

Q: What about the “PFC-SRBC/spleen” value ([4]; Mitomycin C (1.0 mg/kg) + Swainsonine 11 mg/kg i.p.) of the same compound?
A: The value was 20.90 x 10^4 PFC-SRBC/spleen.

Q: What about the “PFC-SRBC/spleen” value ([4]; Mitomycin C (1.0 mg/kg) + Swainsonine 33 mg/kg i.p.) of the same compound?
A: The value was 20.90 x 10^4 PFC-SRBC/spleen.

Q: And the “PFC-SRBC/spleen” value ([4]; Mitomycin C (1.0 mg/kg) + Swainsonine 100 mg/kg i.p.)?
A: Its value is 21.79 x 10^4 PFC-SRBC/spleen.

Q: And the “capacities to produce antibody” value ([4]; mice injected mitomycin C)?
A: The value was “restored the capacities”.

Q: And the “PFC-SRBC/spleen” value [5, 7]?
A: Its value is 16.54 x 10^4 PFC-SRBC/spleen.

Q: And the “PFC-SRBC/spleen” value ([5]; Cyclophosphamide (22.5 mg/kg) + Swainsonine 3 mg/kg i.p.)?
A: The value was 21.53 x 10^4 PFC-SRBC/spleen.

Q: What about the “PFC-SRBC/spleen” value ([5]; Cyclophosphamide (22.5 mg/kg) + Swainsonine 11 mg/kg i.p.) of the same compound?
A: Its value is 16.52 x 10^4 PFC-SRBC/spleen.

Q: And the “PFC-SRBC/spleen” value ([5]; Cyclophosphamide (22.5 mg/kg) + Swainsonine 33 mg/kg i.p.)?
A: The value was 17.19 x 10^4 PFC-SRBC/spleen.

Q: What about the “PFC-SRBC/spleen” value ([5]; Cyclophosphamide (22.5 mg/kg) + Swainsonine 100 mg/kg i.p.) of the same compound?
A: The value was 16.48 x 10^4 PFC-SRBC/spleen.

Q: What about the “capacities to produce antibody” value ([5]; mice injected cyclophosphamide) of the same compound?
A: Its value is “restored the capacities”.

Q: What about the Thymus weight (thymus; sample 5 mg/kg subcutaneously twice per day) of the same compound?
A: The Thymus weight was 73.0 mg/mouse.

Q: And the Thymus weight (thymus; sample 15 mg/kg subcutaneously twice per day)?
A: The Thymus weight was 78.8 mg/mouse.

Q: What about the Thymus weight (thymus; sample 50 mg/kg subcutaneously twice per day) of the same compound?
A: The Thymus weight was 72.4 mg/mouse.

Q: And the “atrophy of thymus induced by dexamethasone” value (thymus; mice)?
A: The value was “prevents”.

Q: What about the “growth of transplantable tumors” value [6] of the same compound?
A: The value was “inhibits growth”.
